Experimental data from ChEMBL document CHEMBL1201862, “PubChem BioAssay data set” (2004).
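Assay format: 96-well plates, 48-hour exposure. GI50 marks 50% less growth.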 Calls of active or inactive are those of the source. No stated cut-off is given here; in the data, active = GI50 up to about 1.1 µM and inactive = higher.

Key:
Assay in all cases: NCI tumour cell line growth inhibition, 48 h
NCI/ADR-RES = test system: NCI/ADR-RES
SNB-75 = test system: SNB-75
T47D = test system: T47D
NCI-H460 = test system: NCI-H460
HCT-116 = test system: HCT-116
TK-10 = test system: TK-10
HOP-62 = test system: HOP-62
K562 = test system: K562
IGROV-1 = test system: IGROV-1
MDA-MB-231 = test system: MDA-MB-231
OVCAR-3 = test system: OVCAR-3
SK-MEL-5 = test system: SK-MEL-5
OVCAR-4 = test system: OVCAR-4
MCF7 = test system: MCF7
SK-MEL-28 = test system: SK-MEL-28
SF-295 = test system: SF-295
SW-620 = test system: SW-620
OVCAR-8 = test system: OVCAR-8
HL-60 = test system: HL-60
SR = test system: SR

Measured: GI50

CC(C)=Cc1cc(CCC/C(C)=C/Cc2c(O)cc(C)c(C(=O)O)c2O)co1
inactive: NCI/ADR-RES > 100 µM | SNB-75 > 100 µM | T47D 67.1 µM | NCI-H460 > 100 µM | HCT-116 > 100 µM | TK-10 > 100 µM | HOP-62 > 100 µM | IGROV-1 > 100 µM | MDA-MB-231 39 µM | OVCAR-3 > 100 µM | SK-MEL-5 > 100 µM | OVCAR-4 > 100 µM | MCF7 > 100 µM | SK-MEL-28 > 100 µM | SF-295 > 100 µM | SW-620 > 100 µM | OVCAR-8 84.9 µM
active: K562 0.203 µM

COC(=O)C1CCC(=S)N1C(=O)c1ccccc1 (stereo not drawn)
inactive: NCI/ADR-RES > 100 µM | SNB-75 > 100 µM | T47D > 100 µM | NCI-H460 40.6 µM | HCT-116 > 100 µM | TK-10 > 100 µM | HOP-62 > 100 µM | K562 4.94 µM | IGROV-1 > 100 µM | MDA-MB-231 > 100 µM | OVCAR-3 > 100 µM | SK-MEL-5 > 100 µM | OVCAR-4 > 100 µM | MCF7 > 100 µM | SK-MEL-28 > 100 µM | SF-295 > 100 µM | OVCAR-8 > 100 µM

Cc1ccccc1NC(=O)Cc1csc2[n+]1C(=O)/C(=C/c1ccc([N+](=O)[O-])cc1)S2
inactive: NCI/ADR-RES 42.4 µM | SNB-75 19.3 µM | T47D 29.2 µM | NCI-H460 22.1 µM | HCT-116 37.6 µM | TK-10 19.9 µM | HOP-62 33.5 µM | HL-60 27.7 µM | IGROV-1 25.7 µM | MDA-MB-231 37.5 µM | OVCAR-3 31.2 µM | SK-MEL-5 27.4 µM | OVCAR-4 12.1 µM | MCF7 42.9 µM | SK-MEL-28 37.7 µM | SF-295 31.8 µM | SW-620 33.6 µM | OVCAR-8 24.8 µM

O=C1CCCCCCCCCCC1CN1CCCC1 (stereo not drawn)
inactive: NCI/ADR-RES 40 µM | SNB-75 32.9 µM | T47D 46.1 µM | NCI-H460 26.9 µM | HCT-116 33.4 µM | TK-10 32.3 µM | HOP-62 17.1 µM | K562 53.8 µM | HL-60 32 µM | IGROV-1 46 µM | MDA-MB-231 47.9 µM | OVCAR-3 67.5 µM | SK-MEL-5 17.6 µM | MCF7 20.5 µM | SK-MEL-28 22.1 µM | SF-295 29.9 µM | SW-620 39.3 µM | OVCAR-8 45.4 µM

COc1ccc(/C(Cl)=C(\CNc2ccccn2)c2ccccc2)cc1OC
inactive: NCI/ADR-RES > 100 µM | SNB-75 > 100 µM | T47D > 100 µM | NCI-H460 > 100 µM | HCT-116 > 100 µM | TK-10 > 100 µM | HOP-62 > 100 µM | K562 > 100 µM | HL-60 > 100 µM | IGROV-1 > 100 µM | MDA-MB-231 > 100 µM | SK-MEL-5 > 100 µM | OVCAR-4 > 100 µM | SK-MEL-28 > 100 µM | SF-295 > 100 µM | SR > 100 µM | SW-620 > 100 µM | OVCAR-8 > 100 µM

CCN1CCC(O)(/C=C/c2ccc(Cl)c(Cl)c2)C(C(=O)/C=C/c2ccc(Cl)c(Cl)c2)C1 (stereo not drawn)
inactive: TK-10 1.32 µM
active: NCI/ADR-RES 0.843 µM | SNB-75 1.01 µM | T47D 0.966 µM | NCI-H460 0.76 µM | HCT-116 0.514 µM | HOP-62 0.951 µM | K562 0.324 µM | HL-60 0.246 µM | IGROV-1 0.706 µM | MDA-MB-231 0.635 µM | OVCAR-3 0.764 µM | SK-MEL-5 0.834 µM | OVCAR-4 0.632 µM | MCF7 1.06 µM | SK-MEL-28 0.881 µM | SF-295 0.713 µM | SW-620 0.466 µM | OVCAR-8 0.745 µM

C=CCNC(=O)N1CC(C)C(=O)Nc2ccccc21 (stereo not drawn)
inactive: T47D > 100 µM | NCI-H460 > 100 µM | HCT-116 > 100 µM | TK-10 > 100 µM | HOP-62 > 100 µM | K562 > 100 µM | HL-60 > 100 µM | IGROV-1 > 100 µM | MDA-MB-231 > 100 µM | OVCAR-3 > 100 µM | SK-MEL-5 > 100 µM | OVCAR-4 > 100 µM | MCF7 > 100 µM | SK-MEL-28 > 100 µM | SF-295 > 100 µM | SR > 100 µM | SW-620 > 100 µM | OVCAR-8 > 100 µM

CC(C)CCNC(=O)C(CC(C)C)NC(=O)[C@H]1O[C@@H]1C(=O)O (stereo partly drawn)
inactive: NCI/ADR-RES > 100 µM | SNB-75 > 100 µM | T47D > 100 µM | NCI-H460 > 100 µM | HCT-116 > 100 µM | HOP-62 > 100 µM | K562 > 100 µM | IGROV-1 > 100 µM | MDA-MB-231 > 100 µM | OVCAR-3 > 100 µM | SK-MEL-5 > 100 µM | OVCAR-4 > 100 µM | MCF7 > 100 µM | SK-MEL-28 > 100 µM | SF-295 > 100 µM | SW-620 > 100 µM | OVCAR-8 > 100 µM

CC/C(Cl)=N\OC(=O)Nc1ccccc1OC(F)(F)F
inactive: NCI/ADR-RES 14.9 µM | SNB-75 19.7 µM | T47D 4.32 µM | NCI-H460 20.7 µM | HCT-116 7.08 µM | TK-10 11.6 µM | HOP-62 19 µM | K562 1.95 µM | HL-60 1.97 µM | IGROV-1 15.8 µM | MDA-MB-231 17.1 µM | OVCAR-3 8.22 µM | SK-MEL-5 7.38 µM | OVCAR-4 19.8 µM | MCF7 9.12 µM | SK-MEL-28 20.1 µM | SF-295 17.2 µM | SW-620 2.52 µM | OVCAR-8 17.7 µM

CC(O)CNC1=CC(=O)C(=O)c2ccccc21 (stereo not drawn)
inactive: SNB-75 14.9 µM | T47D 20.9 µM | NCI-H460 14.3 µM | HCT-116 16.1 µM | TK-10 28.7 µM | HOP-62 18.2 µM | K562 28.9 µM | HL-60 27.4 µM | IGROV-1 13.4 µM | MDA-MB-231 22 µM | OVCAR-3 3 µM | SK-MEL-5 2.82 µM | OVCAR-4 13.2 µM | MCF7 19.5 µM | SK-MEL-28 19 µM | SF-295 13.5 µM | SR 16.7 µM | SW-620 15.5 µM

Cc1cc(C)n(C2=NS(=O)(=O)c3ccccc3N2C)n1
inactive: NCI/ADR-RES > 100 µM | T47D > 100 µM | NCI-H460 > 100 µM | HCT-116 > 100 µM | TK-10 > 100 µM | HOP-62 > 100 µM | K562 > 100 µM | HL-60 > 100 µM | IGROV-1 > 100 µM | MDA-MB-231 > 100 µM | OVCAR-3 > 100 µM | SK-MEL-5 > 100 µM | OVCAR-4 > 100 µM | MCF7 > 100 µM | SK-MEL-28 > 100 µM | SF-295 > 100 µM | SW-620 > 100 µM | OVCAR-8 > 100 µM
